Earlier results as cited in patent US20250144059A1, “GUANIDINOACETIC ACID, ITS DERIVATES, COMPOSITIONS AND METHODS OF USE THEREOF” (priority 2023, published 2025).

Settings: Merck Index 15th Edition 2013, item #4530

solubility in water: fairly soluble in water
Structure (SMILES): N=C(N)NCC(=O)O [Number G10, guanidinoacetic acid]
